ChEMBL document CHEMBL5335780, “The emerging role of mixed lineage kinase 3 (MLK3) and its potential as a target for neurodegenerative diseases therapies” (Eur J Med Chem, 2023)

Experiments:
[1] = target: Mitogen-activated protein kinase kinase kinase 9 (Homo sapiens, UniProt P80192); test: Inhibition of MLK1 (unknown origin)
[2] = target: Mitogen-activated protein kinase kinase kinase 11 (Homo sapiens, UniProt Q16584); test: Inhibition of MLK3 (unknown origin)
Mitogen-activated protein kinase kinase kinase 11, sequence (Q16584 whole entry): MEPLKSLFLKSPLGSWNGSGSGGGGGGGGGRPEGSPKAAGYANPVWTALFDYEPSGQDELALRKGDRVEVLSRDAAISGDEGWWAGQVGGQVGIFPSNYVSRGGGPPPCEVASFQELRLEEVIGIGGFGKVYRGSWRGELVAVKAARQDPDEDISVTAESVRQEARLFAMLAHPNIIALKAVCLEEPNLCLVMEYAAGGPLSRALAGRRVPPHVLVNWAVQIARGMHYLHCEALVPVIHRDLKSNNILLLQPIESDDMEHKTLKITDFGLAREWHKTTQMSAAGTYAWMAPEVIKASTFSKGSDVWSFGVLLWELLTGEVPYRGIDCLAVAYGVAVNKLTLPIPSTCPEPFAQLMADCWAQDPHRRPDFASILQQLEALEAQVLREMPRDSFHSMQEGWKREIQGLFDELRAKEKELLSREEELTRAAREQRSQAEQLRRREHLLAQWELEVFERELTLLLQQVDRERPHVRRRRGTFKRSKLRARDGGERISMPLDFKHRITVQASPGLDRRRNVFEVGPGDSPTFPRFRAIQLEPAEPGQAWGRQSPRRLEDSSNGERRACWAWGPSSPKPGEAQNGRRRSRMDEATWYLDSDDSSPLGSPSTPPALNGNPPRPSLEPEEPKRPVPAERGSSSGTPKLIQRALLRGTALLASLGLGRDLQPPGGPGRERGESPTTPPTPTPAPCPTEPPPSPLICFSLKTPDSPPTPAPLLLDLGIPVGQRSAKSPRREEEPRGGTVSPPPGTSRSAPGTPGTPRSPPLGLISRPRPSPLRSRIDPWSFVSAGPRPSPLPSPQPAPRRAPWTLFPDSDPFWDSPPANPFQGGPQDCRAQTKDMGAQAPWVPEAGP

Mitogen-activated protein kinase kinase kinase 9, sequence (P80192 whole entry): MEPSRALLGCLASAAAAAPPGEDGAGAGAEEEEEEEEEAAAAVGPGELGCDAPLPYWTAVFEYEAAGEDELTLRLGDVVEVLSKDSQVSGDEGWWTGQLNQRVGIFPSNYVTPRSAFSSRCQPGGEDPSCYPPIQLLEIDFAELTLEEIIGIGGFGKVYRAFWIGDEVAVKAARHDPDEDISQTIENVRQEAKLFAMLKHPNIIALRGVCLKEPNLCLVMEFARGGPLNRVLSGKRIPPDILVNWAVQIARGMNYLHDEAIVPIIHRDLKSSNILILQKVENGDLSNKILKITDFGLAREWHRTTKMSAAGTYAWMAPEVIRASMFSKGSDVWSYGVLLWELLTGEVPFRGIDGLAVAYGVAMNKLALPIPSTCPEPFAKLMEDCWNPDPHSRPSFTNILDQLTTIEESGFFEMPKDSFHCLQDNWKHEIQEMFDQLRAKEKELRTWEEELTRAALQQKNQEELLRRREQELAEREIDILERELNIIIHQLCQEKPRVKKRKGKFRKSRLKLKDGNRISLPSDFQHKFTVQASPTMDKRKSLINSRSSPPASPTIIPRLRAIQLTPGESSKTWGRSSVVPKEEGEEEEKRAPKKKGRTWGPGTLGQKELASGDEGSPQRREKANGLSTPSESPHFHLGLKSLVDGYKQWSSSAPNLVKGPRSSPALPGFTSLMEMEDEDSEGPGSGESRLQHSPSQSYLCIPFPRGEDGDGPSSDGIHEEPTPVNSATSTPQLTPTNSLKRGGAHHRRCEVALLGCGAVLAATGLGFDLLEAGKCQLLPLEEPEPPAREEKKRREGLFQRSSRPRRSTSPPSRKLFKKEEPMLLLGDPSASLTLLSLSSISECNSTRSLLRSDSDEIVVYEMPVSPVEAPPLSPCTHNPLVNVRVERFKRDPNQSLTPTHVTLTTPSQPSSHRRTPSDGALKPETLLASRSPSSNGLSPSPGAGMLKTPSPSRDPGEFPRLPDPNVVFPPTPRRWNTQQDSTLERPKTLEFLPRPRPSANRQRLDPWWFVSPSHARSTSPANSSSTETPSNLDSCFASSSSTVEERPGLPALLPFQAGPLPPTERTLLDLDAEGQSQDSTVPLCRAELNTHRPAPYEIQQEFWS

`OCCN1CCN(Cc2ccc(-c3cnc4[nH]cc(-c5cccc(Cl)c5)c4c3)cc2)CC1` was tested, and the IC50 [1] was 44.7 nM and the IC50 [2] was 23.7 nM.
